Like-named read-outs stand apart in the source and are kept apart here.
Columns and labels:
[1] = test system: stearoyl-CoA desaturase; assay: Fatty acid composition in rats after repeated dosing; assay type: in vivo; conditions: 9 doses (2 per day), 30 mg/kg body weight, HCl salt
Source text: A highly preferred compound of the invention has the structure of Formula I, wherein R1 is H and R2 is isopentyl, X=C, n=2, m=1 and R3=2-trifluoromethylphenyl.

[2] = target: T1, stearoyl-CoA desaturase (SCD) (Mus musculus, UniProt P13516); assay: SCD mouse liver microsome assay (tritiated stearoyl-CoA desaturation); assay type: biochemical; conditions: for % Remaining SCD activity compared to DMSO control, average: mouse liver microsomes 100 μg, 15 min RT preincubation, 15 min RT desaturation
T1 construct: % Remaining SCD activity compared to DMSO control in mouse liver microsome assay; from tissue; host or cells: mouse liver microsomes
T1 sequence (P13516 1-355): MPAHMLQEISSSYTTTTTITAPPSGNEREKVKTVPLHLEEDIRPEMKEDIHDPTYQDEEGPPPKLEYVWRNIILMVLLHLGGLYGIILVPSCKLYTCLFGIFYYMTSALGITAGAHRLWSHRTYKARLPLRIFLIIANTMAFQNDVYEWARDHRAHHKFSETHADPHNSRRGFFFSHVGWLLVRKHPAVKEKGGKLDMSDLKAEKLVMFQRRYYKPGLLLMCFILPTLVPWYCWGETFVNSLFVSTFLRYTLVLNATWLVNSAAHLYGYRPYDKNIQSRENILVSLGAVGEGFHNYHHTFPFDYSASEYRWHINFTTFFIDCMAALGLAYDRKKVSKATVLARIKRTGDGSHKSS
Procedure: The identification of compounds of the invention was readily accomplished using the SCD enzyme and microsomal assay procedure described in Brownlie et al, supra.
Briefly, mouse or human liver microsomes (induced for SCD1 expression and containing cytochrome b5 and cytochrome b5 reductase) and NADH are suspended in buffer with a test compound, and reaction is initiated by addition of 0.025 mM tritiated stearoyl-CoA. This ligand is tritiated at the C9 and C10 position only. The reaction is allowed to proceed for between 5 and 20 minutes at room temperature, whereupon it is halted by addition of acid. Activated charcoal is then added, mixed, and centrifuged to separate labeled substrate from labeled water. An aliquot of supernatant is than tested for radioactivity using liquid scintillation counting. This is taken as a measure of delta-9 desaturase activity.
The compounds and compositions of the invention were tested in mouse liver microsomes, 100 μg for 15 minutes at room temperature pre-incubation with the compound and 15 minutes at room temperature desaturation period. […] Identification numbers are the same as those indicated in FIGS. 1 and 2 showing the structures and characteristics of the compounds.
% Remaining SCD activity compared to DMSO control in mouse liver microsome assay at concentration of test compound indicated. Compounds tested in mouse liver microsomes, 100 μg, 15 min RT preincubation with compound, 15 min RT desaturation period, Large volume bench-top tube method.

[3] = Table 5, % remaining SCD activity at 0.1 μM, mouse microsome assay
[4] = Table 5, % remaining SCD activity at 1 μM, mouse microsome assay
[5] = Table 5, % remaining SCD activity at 10 μM, mouse microsome assay

% Remaining SCD activity compared to DMSO control, average ([2]; 0.1 uM test compound)	% Remaining SCD activity compared to DMSO control, average ([2]; 1 uM test compound)	% Remaining SCD activity compared to DMSO control, average ([2]; 10 uM test compound)	% Activity 0.1 μM [2, 3]	% Activity 1 μM [2, 4]	% Activity 10 μM [2, 5]	% of the activity inhibited ([2]; 10 μM concentration of the compound)	activity at 0.1 µM [2, 3]	activity at 1 µM [2, 4]	activity at 10 µM [2, 5]	IC50 ([2]; stated in summary text, read-out: IC50 value)	IC50 ([2]; Table 5, SCD inhibition, read-out: IC50)	SMILES	changes in fatty acid composition [1]
57.77%	9.05%	1.42%	58%	9.1%	1.4%							O=C(NCCc1cccc(Cl)c1)c1ccc(N2CCN(C(=O)c3ccccc3C(F)(F)F)CC2)nc1 [Compound X01]	
25.68%	5.49%	1.27%	26%	5.5%	1.3%							CC(C)CCNC(=O)c1ccc(N2CCN(C(=O)c3ccccc3Br)CC2)nc1 [Compound X02]	
17.09%	3.05%	0.81%					17%	3.1%	0.8%	32 nM		CC(C)CCNC(=O)c1ccc(N2CCN(C(=O)c3ccccc3C(F)(F)F)CC2)nc1 [Compound X05]	
63.58%	14.80%	2.69%	64%	15%	2.7%							CCCCNC(=O)c1ccc(N2CCN(C(=O)c3ccccc3C(F)(F)F)CC2)nc1 [Compound X09]	
25.41%	3.67%	1.72%	25%	3.7%	1.7%						37 nM	CCCCCNC(=O)c1ccc(N2CCN(C(=O)c3ccccc3C(F)(F)F)CC2)nc1 [Compound X11]	
44.95%	6.46%	1.22%	45%	6.5%	1.2%							CCCCCCNC(=O)c1ccc(N2CCN(C(=O)c3ccccc3C(F)(F)F)CC2)nc1 [Compound X15]	
31.35%	7.01%	2.06%	31%	7%	2.1%							CC(C)CCNC(=O)c1ccc(N2CCN(C(=O)c3cccc4ccccc34)CC2)nc1 [Compound X16]	

Further lines, the compound ahead of its results:

SMILES	% Remaining SCD activity compared to DMSO control, average ([2]; 0.1 uM test compound)	% Remaining SCD activity compared to DMSO control, average ([2]; 1 uM test compound)	% Remaining SCD activity compared to DMSO control, average ([2]; 10 uM test compound)	% Activity 0.1 μM [2, 3]	% Activity 1 μM [2, 4]	% Activity 10 μM [2, 5]	% of the activity inhibited ([2]; 10 μM concentration of the compound)	activity at 0.1 µM [2, 3]	activity at 1 µM [2, 4]	activity at 10 µM [2, 5]	IC50 ([2]; stated in summary text, read-out: IC50 value)	IC50 ([2]; Table 5, SCD inhibition, read-out: IC50)	changes in fatty acid composition [1]
CC(C)CCNC(=O)c1ccc(N2CCN(C(=O)c3ccccc3C(F)(F)F)CC2)nc1													changes in fatty acid composition consistent with inhibition of SCD activity
O=C(NCCCc1ccccc1)c1ccc(N2CCN(C(=O)c3ccccc3C(F)(F)F)CC2)nc1 [Compound X03]	26.04%	2.17%	0.72%	26%	2.2%	0.7%	> 99%						
O=C(NCCc1ccccc1)c1ccc(N2CCN(C(=O)c3ccccc3Br)CC2)nc1 [Compound X04]	36.54%	5.48%	1.29%	37%	5.5%	1.3%							
CCCCCNC(=O)c1ccc(N2CCN(C(=O)c3cc(Cl)ccc3Cl)CC2)nc1 [Compound X06]	38.00%	5.38%	1.97%	38%	5.4%	2%							
O=C(NCCCc1ccccc1)c1ccc(N2CCN(C(=O)c3cc(Cl)ccc3Cl)CC2)nc1 [Compound X10]	29.72%	3.37%	1.07%	30%	3.4%	1.1%							
O=C(NCCc1ccccc1)c1ccc(N2CCN(C(=O)c3cc(Cl)ccc3Cl)CC2)nc1 [Compound X12]	29.87%	3.91%	1.15%	30%	3.9%	1.2%							
CCCCCNC(=O)c1ccc(N2CCN(C(=O)c3ccccc3Br)CC2)nc1 [Compound X13]	44.42%	7.77%	1.75%	44%	7.8%	1.8%							
CC(C)CCNC(=O)c1ccc(N2CCN(C(=O)c3ccc(Cl)cc3Cl)CC2)nc1 [Compound X14]	38.24%	7.44%	1.39%	38%	7.4%	1.4%							
COc1ccc(Br)c(C(=O)N2CCN(c3ccc(C(=O)NCCCc4ccccc4)cn3)CC2)c1 [Compound X17]	61.74%	10.59%	1.01%			1.01%							
Cc1ccsc1C(=O)N1CCN(c2ccc(C(=O)NCCc3cccc(Cl)c3)cn2)CC1 [Compound X18]	86.33%	32.64%	3.41%			3.41%							
CCCCNC(=O)c1ccc(N2CCN(C(=O)c3ccccc3Br)CC2)nc1 [Compound X19]	75.14%	18.59%	3.57%			3.57%							
Cc1ccccc1CC(=O)N1CCN(c2ccc(C(=O)NCCC(C)C)cn2)CC1 [Compound X21]	74.82%	33.28%	3.94%			3.94%							
